Test results reported in US20110263693A1, “CELASTROL, GEDUNIN, AND DERIVATIVES THEREOF AS HSP90 INHIBITORS” (DANA-FARBER CANCER INSTITUTE, INC., priority 2006, published 2011).

What was measured:
celastrol signature = test: Connectivity Map query with the celastrol signature; type: cell-based, human
Procedure, shortened: (§1)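 LNCaP cells received celastrol 1.25 μM or gedunin 20 μM for 6 h. Each signature was scored by Kolmogorov–Smirnov-based connectivity against 453 build01 profiles, mostly 6 h treatments of MCF7 cells.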

gedunin signature = test: Connectivity Map query with the gedunin signature; type: cell-based, human
Procedure, shortened: as §1

Raf-1 = test: Western blot of HSP90 client Raf-1 level; type: cell-based; conditions: LNCaP, 1.25 μM, 24 hours
[1] = tested on: HSP90 interaction with the cochaperone p23; test: HSP90 coimmunoprecipitation, p23; type: cell-based; conditions: SKBR-3 cells; celastrol 2.5 μM, 12 hr
Procedure: Geldanamycin and other HSP90 inhibitors are known to inhibit p23 association with HSP90 (Felts et al., 2003).
(§2) SKBR-3 cells were treated with vehicle, celastrol (2.5 μM, 12 hr), and PU24FCI (20 μM, 24 hr) (Vilenchik et al., 2004). Cells were lysed in 20 mM Tris HCl (pH 7.4), 25 mM NaCl, 2 mM DDT, 20 mM Na2MoO4, 0.1% NP-40, and […]. Lysates were incubated for 2 hr at 4° C., rotating, and then centrifuged at 13,000×g for 10 min. Protein (500 μg) was incubated with H9010 anti-HSP90 antibody for 1 hr at 4° C., rotating. Protein G agarose (30 μl; Upstate) was added to each sample, and samples were then incubated for 1 hr at 4° C., rotating. The beads were washed five times with 1 ml lysis buffer. Bound proteins were isolated by boiling in sample buffer. The levels of HSP90 and coimmunoprecipitating proteins were analyzed by western blot.

HSP90-HOP interaction = test: HSP90 coimmunoprecipitation, HOP; type: cell-based; conditions: SKBR-3 cells; celastrol 2.5 μM, 12 hr
Procedure: Geldanamycin and other HSP90 inhibitors are known to inhibit p23 association with HSP90 (Felts et al., 2003). In contrast, HSP90-HOP interaction was unaltered by celastrol and other HSP90 inhibitors (FIG. 7F). Thus, celastrol inhibits the functional interactions of HSP90 and suppresses HSP90 client levels.
as §2

[2] = tested on: rat models for Alzheimer's disease; conditions: 7 mg/kg daily; cited from earlier work
hERG potassium channel = hERG potassium channel (Homo sapiens, UniProt Q12809); conditions: by inhibiting hERG maturation (Sun et al., 2006); cited from earlier work
HSP70 = conditions: Westerheide et al., 2004; cited from earlier work

Sequence of hERG potassium channel (Q12809 whole entry): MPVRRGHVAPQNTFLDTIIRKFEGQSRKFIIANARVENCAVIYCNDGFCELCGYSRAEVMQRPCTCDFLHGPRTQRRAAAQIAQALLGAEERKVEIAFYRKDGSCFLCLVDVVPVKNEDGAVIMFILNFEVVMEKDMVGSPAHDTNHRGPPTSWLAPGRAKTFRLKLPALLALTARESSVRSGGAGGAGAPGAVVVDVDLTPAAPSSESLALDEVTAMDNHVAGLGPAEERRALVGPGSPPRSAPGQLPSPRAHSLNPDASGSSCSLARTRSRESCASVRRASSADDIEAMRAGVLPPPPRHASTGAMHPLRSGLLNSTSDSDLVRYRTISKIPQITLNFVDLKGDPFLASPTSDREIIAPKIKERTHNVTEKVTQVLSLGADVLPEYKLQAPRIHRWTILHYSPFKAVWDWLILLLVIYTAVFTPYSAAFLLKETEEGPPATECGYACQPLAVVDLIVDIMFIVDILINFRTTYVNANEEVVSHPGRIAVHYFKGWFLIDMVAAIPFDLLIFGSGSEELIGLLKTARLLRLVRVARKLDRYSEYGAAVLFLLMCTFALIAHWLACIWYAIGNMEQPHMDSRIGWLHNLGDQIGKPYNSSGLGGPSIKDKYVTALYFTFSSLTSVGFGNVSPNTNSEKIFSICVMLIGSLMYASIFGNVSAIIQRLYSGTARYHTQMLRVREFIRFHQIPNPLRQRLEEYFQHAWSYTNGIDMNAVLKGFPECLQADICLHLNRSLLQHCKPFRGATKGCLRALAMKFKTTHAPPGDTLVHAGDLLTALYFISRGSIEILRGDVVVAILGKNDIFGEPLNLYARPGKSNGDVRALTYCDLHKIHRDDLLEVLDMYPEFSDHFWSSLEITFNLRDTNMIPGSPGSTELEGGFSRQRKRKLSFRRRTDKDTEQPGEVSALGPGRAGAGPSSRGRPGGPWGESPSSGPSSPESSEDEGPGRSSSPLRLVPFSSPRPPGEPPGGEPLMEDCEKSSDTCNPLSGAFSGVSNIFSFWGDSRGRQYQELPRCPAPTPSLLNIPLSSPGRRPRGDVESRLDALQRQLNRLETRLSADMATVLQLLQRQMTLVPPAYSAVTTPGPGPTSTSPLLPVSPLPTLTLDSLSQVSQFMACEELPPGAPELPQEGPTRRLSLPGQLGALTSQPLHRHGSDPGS

CC1=C(O)C(=O)C=C2C1=CC=C1[C@@]2(C)CC[C@@]2(C)[C@@H]3C[C@](C)(C(=O)O)CC[C@]3(C)CC[C@]12C [celastrol]
celastrol score (connectivity score) (celastrol signature; enrichment of the celastrol signature (1.25 μM celastrol at 6 h, LNCaP) in the compound's Connectivity Map profiles, 6 hr treatment): 0.85
Connectivity Map rank of match for the celastrol signature (celastrol signature; out of 164 compounds, signature from LNCaP 1.25 μM, 6 hr): fourth-ranked match
gedunin score (connectivity score) (gedunin signature; enrichment of the gedunin signature (20 μM gedunin at 6 hours, LNCaP) in the compound's Connectivity Map profiles, 6 hr treatment): 0.997
Connectivity Map rank of match for the gedunin signature (gedunin signature; out of 164 compounds, signature from LNCaP 20 μM, 6 hr): top match
level of Raf-1 (Raf-1): decreases the levels
HSP90 interaction with cochaperone p23 (coimmunoprecipitation) [1]: reduced HSP90 interaction with the cochaperone p23
HSP90-HOP interaction (coimmunoprecipitation) (HSP90-HOP interaction): unaltered
activity in rat models for Alzheimer's disease [2]: activity
hERG potassium channel activity (hERG potassium channel): suppress hERG potassium channel activity
HSP70 levels (HSP70): induce HSP70 levels
